Experimental data taken from paper PMC11118832 (Biomolecules, 2024).
pEC50: −log10 of the molar value. Square brackets hold non-standard residues; d marks the D form. Ends that are not written are not given here. Peptide text beside a SMILES is read from it. hLeu = CC(C)CC[C@H](N)C(=O)O; Nle = CCCC[C@H](N)C(=O)O; Orn = NCCC[C@H](N)C(=O)O

Target: T1, PD-1/PD-L1 (Homo sapiens, UniProt Q15116)
T1 construct: this kit uses ectodomains of PD-1 and PD-L1 that are expressed with orthogonal fusion tags (Tag-1 and Tag-2); purchased CisBio (currently Perkin-Elmer, Bedford, MA)
Experiment: In vitro time-resolved FRET PD-1/PD-L1 binding assay (CisBio kit)
Conditions: CisBio PD-1/PD-L1 binding kit, TR FRET, 96-well, serial dilutions in triplicate; NI = no inhibition at maximum concentration tested (* 5 μM, ** 50 μM); read-out: EC50 (Supplementary Table S1; inhibition of PD-1/PD-L1 binding by in vitro TR-FRET assay)
Procedure: Commercial PD-1/PD-L1 binding assay kit (CisBio, currently Perkin-Elmer, Bedford, MA) for time resolve fluorescent energy transfer (FRET) was used to assess peptides binding to PD-1. The assay for peptide screening was performed in a 96-well format (normal pressure), starting with 4-fold serial dilutions of each peptide in triplicate. No-peptide triplicate wells were used to assess fluorescent energy transfer in the absence of inhibition, and no-PD-1/PD-L1 triplicate wells were used to assess the background fluorescent energy transfer in the absence of PD-1/PD-L1 complexes. More detailed concentration dependences were obtained for selected peptides. Only freshly dissolved peptides were used in the assay. Various QSAR (quantitative structure activity relationship) hypotheses were tested by synthesizing batches of 10–12 peptides. In total, over one hundred candidates in ten iterations were screened for their ability to inhibit in vitro PD-1/PD-L1 binding using the commercial PD-1/PD-L1 binding assay kit (CisBio, currently Perkin-Elmer). Briefly, this kit uses ectodomains of PD-1 and PD-L1 that are expressed with orthogonal fusion tags (Tag-1 and Tag-2). It also includes two antibodies to selectively interact with these tags. The antibody against one tag is labeled with fluorescent moiety, which serves as a donor, while the other antibody is labeled with fluorescent moiety, which serves as an acceptor in fluorescent resonance energy transfer (FRET). When the complex is formed and probed with both anti-Tag-1 and anti-Tag-2 antibodies, donor and acceptor are sufficiently close, and FRET can be detected in a time-resolved (TR) manner. Inhibitors of PD-1/PD-L1 interactions prevent complex formation, leading to a decrease in TR FRET in a concentration-dependent manner, as shown in Figure 2 for four representative peptide inhibitors. Initial fourfold dilutions are exemplified by data for peptides B5.11 and B5.6 (panels A and B); examples of the more detailed follow-up concentration dependences are shown for peptides B2.4 and B2.22 (panels C and D). The potency of the inhibitors is then characterized by IC50, a concentration that inhibits TR FRET by 50%, allowing for a facile comparison of different inhibitors (Figure 2E).

T1 sequence (Q15116 25-170 limits assumed): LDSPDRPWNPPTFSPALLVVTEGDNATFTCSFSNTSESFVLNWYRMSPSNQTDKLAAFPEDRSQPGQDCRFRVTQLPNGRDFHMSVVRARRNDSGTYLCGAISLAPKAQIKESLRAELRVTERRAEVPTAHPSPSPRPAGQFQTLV

## CC(=O)N[C@@H](CC(=O)O)C(=O)N[C@H](C(=O)N[C@@H](CCC(C)C)C(=O)N[C@@H](CC(=O)O)C(=O)NCC(=O)N[C@@H](C)C(=O)N[C@@H](C)C(=O)N[C@@H](Cc1c[nH]c2ccccc12)C(=O)N[C@@H](CC(=O)O)C(=O)N[C@@H](Cc1ccc(O)cc1)C(=O)N[C@@H](CCCCN)C(=O)N[C@@H](Cc1ccc(O)cc1)C(N)=O)C(C)C [B8.14] (Ac-DV[hLeu]DGAAWDYKY-NH2)
  pEC50: < 5.30

## Ac-NVIDGAAWDYKY-NH2 [B8.5]
  pEC50: < 5.30

## Ac-DWIVGAAWDYKY-NH2 [B5.13]
  pEC50: < 5.30

## CCCC[C@H](NC(=O)[C@@H](NC(=O)[C@@H](N)CCCNC(=N)N)C(C)C)C(=O)N[C@H](C(=O)N[C@H](C(=O)N[C@H](C(=O)NCC(=O)N[C@@H](C)C(=O)N[C@@H](C)C(=O)N[C@@H](Cc1c[nH]c2ccccc12)C(=O)N[C@@H](CC(=O)O)C(=O)N[C@@H](Cc1ccc(O)cc1)C(=O)N[C@@H](CCCCN)C(=O)O)C(C)C)[C@@H](C)CC)C(C)C [B4.5] (H-RV[Nle]VIVGAAWDYK-OH; N-terminus and C-terminus assumed)
  pEC50: < 5.30

## CC[C@H](C)[C@H](NC(=O)[C@@H](NC(=O)[C@H](CC(C)C)NC(C)=O)C(C)C)C(=O)N[C@H](C(=O)NCC(=O)N[C@@H](C)C(=O)N[C@@H](CCCN)C(=O)N[C@@H](Cc1c[nH]c2ccccc12)C(=O)N[C@@H](CC(=O)O)C(=O)N[C@@H](Cc1ccc(O)cc1)C(=O)N[C@@H](CCCCN)C(=O)N[C@@H](Cc1ccc(O)cc1)C(N)=O)C(C)C [B3.22] (Ac-LVIVGA[Orn]WDYKY-NH2)
  pEC50: < 5.30

## Ac-DGAAWDYKY-NH2 [B9.0]
  pEC50: < 5.30

## CCCC[C@H](NC(C)=O)C(=O)N[C@H](C(=O)N[C@H](C(=O)N[C@H](C(=O)NCC(=O)N[C@@H](C)C(=O)N[C@@H](C)C(=O)N[C@@H](Cc1c[nH]c2ccccc12)C(=O)N[C@@H](CC(=O)O)C(=O)N[C@@H](Cc1ccc(O)cc1)C(=O)N[C@@H](CCCCN)C(=O)N[C@@H](Cc1ccc(O)cc1)C(N)=O)C(C)C)[C@@H](C)CC)C(C)C [B4.1] (Ac-[Nle]VIVGAAWDYKY-NH2)
  pEC50: < 5.30

## CC(=O)N[C@@H](CCC(C)C)C(=O)N[C@H](C(=O)N[C@@H](Cc1c[nH]c2ccccc12)C(=O)N[C@H](C(=O)NCC(=O)N[C@@H](C)C(=O)N[C@@H](C)C(=O)N[C@@H](Cc1c[nH]c2ccccc12)C(=O)N[C@@H](CC(=O)O)C(=O)N[C@@H](CCCNC(=N)N)C(=O)N[C@@H](CCCCN)C(=O)N[C@@H](Cc1ccc(O)cc1)C(N)=O)C(C)C)C(C)C [B3.21] (Ac-[hLeu]VWVGAAWDRKY-NH2)
  pEC50: < 5.30

## KRVLVIVGAAWDYKYE [B2.35]
  pEC50: 5.00

## Ac-DVVDGAAWDYKY-NH2 [B8.3]
  pEC50: < 5.30

## CC[C@H](C)[C@H](NC(=O)[C@H](CCC(C)C)NC(=O)[C@H](CC(=O)O)NC(C)=O)C(=O)N[C@@H](CC(=O)O)C(=O)NCC(=O)N[C@@H](C)C(=O)N[C@@H](C)C(=O)N[C@@H](Cc1c[nH]c2ccccc12)C(=O)N[C@@H](CC(=O)O)C(=O)N[C@@H](Cc1ccc(O)cc1)C(=O)N[C@@H](CCCCN)C(=O)N[C@@H](Cc1ccc(O)cc1)C(N)=O [B8.18] (Ac-D[hLeu]IDGAAWDYKY-NH2)
  pEC50: < 5.30

## Ac-LVIVGAAWDYK-NH2 [B3.14]
  pEC50: < 5.30

## Ac-DVIDGAAWDYKYLT-NH2 [B7.9]
  pEC50: < 5.30

## LVIVGAAWDYKY [B3.11]
  pEC50: 4.85

## Ac-DVWVGAAWDYKY-NH2 [B5.2]
  pEC50: < 5.30

## Ac-RVLVIVGAALDYKY-NH2 [B2.30]
  pEC50: 4.46

## CC(=O)N[C@H](CC(=O)O)C(=O)NCC(=O)N[C@@H](C)C(=O)N[C@@H](C)C(=O)N[C@@H](Cc1c[nH]c2ccccc12)C(=O)N[C@@H](CC(=O)O)C(=O)N[C@@H](Cc1ccc(O)cc1)C(=O)N[C@@H](CCCCN)C(=O)N[C@@H](Cc1ccc(O)cc1)C(N)=O [B9.8] (Ac-[dD]GAAWDYKY-NH2)
  pEC50: < 4.30

## Ac-RVLVIVGAAWDYKY-NH2 [B2.1]
  pEC50: 4.52

## Ac-DVIEGAAWDYKY-NH2 [B8.1]
  pEC50: 5.66

## Ac-DVIDGAAWDYKYLQ-NH2 [B7.8]
  pEC50: < 5.30

## DVIVGAAWDYKY [B5.14]
  pEC50: < 5.30

## Ac-DVIDGPAWDYKY-NH2 [B8.11]
  pEC50: 5.24

## CC(=O)N[C@H](CC(=O)O)C(=O)N[C@@H](C)C(=O)N[C@@H](Cc1c[nH]c2ccccc12)C(=O)N[C@@H](CC(=O)O)C(=O)N[C@@H](Cc1ccc(O)cc1)C(=O)N[C@@H](CCCCN)C(=O)N[C@@H](Cc1ccc(O)cc1)C(N)=O [B9.3] (Ac-[dD]AWDYKY-NH2)
  pEC50: < 5.30

## CCCC[C@H](N)C(=O)N[C@H](C(=O)N[C@H](C(=O)N[C@H](C(=O)NCC(=O)N[C@@H](C)C(=O)N[C@@H](C)C(=O)N[C@@H](Cc1c[nH]c2ccccc12)C(=O)N[C@@H](CC(=O)O)C(=O)N[C@@H](Cc1ccc(O)cc1)C(=O)N[C@@H](CCCCN)C(=O)N[C@@H](Cc1ccc(O)cc1)C(=O)O)C(C)C)[C@@H](C)CC)C(C)C [B4.2] (H-[Nle]VIVGAAWDYKY-OH; N-terminus and C-terminus assumed)
  pEC50: < 5.30

## Ac-RVKVIVGAAWDYKY-NH2 [B2.11]
  pEC50: 4.26

## Ac-DAWDYKY-NH2 [B9.2]
  pEC50: < 5.30

## Ac-LVIVGAAWDRKY-NH2 [B3.17]
  pEC50: < 4.30

## Ac-DVIVGSAWDYKY-NH2 [B7.2]
  pEC50: < 5.30

## Ac-DAIDGAAWDYKY-NH2 [B8.2]
  pEC50: < 5.30

## Ac-DVIDPAAWDYKY-NH2 [B8.12]
  pEC50: < 5.30

## Ac-DVIDGAAWDYK-NH2 [B8.24]
  pEC50: < 5.30

## Ac-DIIDGAAWDYKY-NH2 [B8.16]
  pEC50: < 5.30

## CC(=O)N[C@@H](CCCNC(=N)N)C(=O)N[C@H](C(=O)N[C@@H](CCC(C)C)C(=O)N[C@H](C(=O)N[C@@H](CCC(C)C)C(=O)N[C@H](C(=O)NCC(=O)N[C@@H](C)C(=O)N[C@@H](C)C(=O)N[C@@H](Cc1c[nH]c2ccccc12)C(=O)N[C@@H](CC(=O)O)C(=O)N[C@@H](Cc1ccc(O)cc1)C(=O)N[C@@H](CCCCN)C(=O)N[C@@H](Cc1ccc(O)cc1)C(N)=O)C(C)C)C(C)C)C(C)C [B2.27] (Ac-RV[hLeu]V[hLeu]VGAAWDYKY-NH2)
  pEC50: 5.74

## Ac-DVIDGAAWDYRY-NH2 [B8.7]
  pEC50: 5.17

## CC(=O)N[C@H](CCC(=O)O)C(=O)N[C@@H](C)C(=O)N[C@@H](Cc1c[nH]c2ccccc12)C(=O)N[C@@H](CC(=O)O)C(=O)N[C@@H](Cc1ccc(O)cc1)C(=O)N[C@@H](CCCCN)C(=O)N[C@@H](Cc1ccc(O)cc1)C(N)=O [B9.5] (Ac-[dE]AWDYKY-NH2)
  pEC50: < 5.30

## CCCC[C@H](NC(C)=O)C(=O)N[C@H](C(=O)N[C@@H](CC(C)C)C(=O)N[C@H](C(=O)N[C@H](C(=O)N[C@H](C(=O)NCC(=O)N[C@@H](C)C(=O)N[C@@H](C)C(=O)N[C@@H](Cc1c[nH]c2ccccc12)C(=O)N[C@@H](CC(=O)O)C(=O)N[C@@H](CCCNC(=N)N)C(=O)N[C@@H](CCCCN)C(=O)N[C@@H](Cc1ccc(O)cc1)C(N)=O)C(C)C)[C@@H](C)CC)C(C)C)C(C)C [B2.16] (Ac-[Nle]VLVIVGAAWDRKY-NH2)
  pEC50: 6.00

## Ac-EAAWDYKY-NH2 [B9.7]
  pEC50: < 4.30

## CCCC[C@H](NC(C)=O)C(=O)N[C@H](C(=O)N[C@@H](Cc1c[nH]c2ccccc12)C(=O)N[C@H](C(=O)NCC(=O)N[C@@H](C)C(=O)N[C@@H](C)C(=O)N[C@@H](Cc1c[nH]c2ccccc12)C(=O)N[C@@H](CC(=O)O)C(=O)N[C@@H](Cc1ccc(O)cc1)C(=O)N[C@@H](CCCCN)C(=O)N[C@@H](Cc1ccc(O)cc1)C(N)=O)C(C)C)C(C)C [B4.11] (Ac-[Nle]VWVGAAWDYKY-NH2)
  pEC50: < 5.30

## CC(=O)N[C@@H](CCC(C)C)C(=O)N[C@H](C(=O)N[C@@H](Cc1c[nH]c2ccccc12)C(=O)N[C@H](C(=O)NCC(=O)N[C@@H](C)C(=O)N[C@@H](CCCN)C(=O)N[C@@H](Cc1c[nH]c2ccccc12)C(=O)N[C@@H](CC(=O)O)C(=O)N[C@@H](CCCNC(=N)N)C(=O)N[C@@H](CCCCN)C(=O)N[C@@H](Cc1ccc(O)cc1)C(N)=O)C(C)C)C(C)C [B3.23] (Ac-[hLeu]VWVGA[Orn]WDRKY-NH2)
  pEC50: < 5.30

## CCCC[C@H](N)C(=O)N[C@H](C(=O)N[C@@H](Cc1c[nH]c2ccccc12)C(=O)N[C@H](C(=O)NCC(=O)N[C@@H](C)C(=O)N[C@@H](C)C(=O)N[C@@H](Cc1c[nH]c2ccccc12)C(=O)N[C@@H](CC(=O)O)C(=O)N[C@@H](Cc1ccc(O)cc1)C(=O)N[C@@H](CCCCN)C(=O)N[C@@H](Cc1ccc(O)cc1)C(=O)O)C(C)C)C(C)C [B4.15] (H-[Nle]VWVGAAWDYKY-OH; N-terminus and C-terminus assumed)
  pEC50: < 5.30
